Results: US8017727B2, “Conjugates of membrane translocating agents and pharmaceutically active agents” (Merrion Research III Limited, priority 1999, dated 2011)
Values after ≈ are worked out from the molar mass of the structure shown.

Assays:
[1] = Systemic 3H bioavailability of kappa peptide conjugates, conscious rat model (plasma); format: in vivo, Wistar rats; conditions: intraduodenal (ID), 100 μCi
Protocol: The possible enhancing effects of ELAN094 and ELAN207 MTLPs (SEQ ID NOs 2 and 60) on intestinal absorption of the kappa peptide were examined in a conscious rat model.
The study was non-randomised, parallel group design. Wistar rats within the 250-350 g weight range were used. All animals were fasted for a period of 16 h prior to study initiation. Water was available at all times.
Intravenous injection of 10 μCi of ^3H-kappa peptide-Kaffiralin-1 (plain kappa peptide) (tail vein injection).
Intraduodenal instillation of 100 μCi of ^3H-kappa peptide-Elan094 (Analysed). The Elan094 ligand contains a membrane translocating sequence.
Intraduodenal instillation of 100 μCi of ^3H-kappa peptide-Elan207 (Analysed). The Elan207 ligand contains a membrane translocating sequence.
Intraduodenal instillation of 100 μCi of ^3H-kappa peptide-Kaffiralin-1.
The plasma (100-250 μl) was made up to 1 ml with BTS-450 (an organic tissue solubiliser) and incubated for 1 hour. Ten ml of Scintillation fluid was added and the radioactivity was measured.
The study was a non-randomised, parallel group biostudy designed to evaluate the systemic bioavailability of tritium labelled kappa peptide conjugates after intra-duodenal instillation in the conscious rat model. Each rat only received one treatment and the plasma samples were analysed for tritium content. The calculation of AUClast, Amax, tmax, Volume of Distribution (V d) and Clearance was based on base line corrected data. The absolute bioavailability was calculated using potency corrected data.

[2] = tested on: Caco-2 cell monolayers; assay: Permeability of tritiated kappa peptide conjugates through differentiated Caco-2 cell monolayers; format: in vitro ADME, human; conditions: n=5
Protocol: Highest transport values were obtained in the first 30 min followed by a 2-4 fold decrease at 60 min. The significance of these findings is unclear. The data may be indicative of dual binding/uptake events occurring through i) a kappa receptor specific mechanism and ii) direct membrane interaction through lipid interaction of the membrane permeable peptide.

[3] = 3H tissue distribution of kappa peptide conjugates, conscious rat model; format: in vivo, Wistar rats; conditions: ID, 100 μCi, potency corrected
Protocol: The tissue was weighed and a representative sample, (ca 0.1 g), was removed to a scintillation vial. The tissue was solubilzed with 1 ml of BTS-450 (an organic tissue solubliser). Ten ml of scintillation fluid was added and the radioactivity was measured. The radioactivity was expressed as dpm/initial weight of tissue.

[4] = tested on: Caco-2 cells; assay: Delivery of DNA from MTLP coated liposomes into Caco-2 cells (β-galactosidase expression); format: cell-based, human; conditions: versus lipofectamine+DNA and lipofectamine+DNA+protamine control liposomes
Protocol: DNA delivery into Caco-2 cells from liposomes and from MTLP coated liposomes was calculated as β-galactosidase expression per mg of total protein in the cell supernatant. β-galactosidase expression was determined using the Boehringer Mannheim chemiluminescence kit. Protein was determined using the Pierce Micro bichinconate (BCA) protein assay.
Caco-2 cells were plated at 1×10^5 cells/well in 1 ml of culture media and incubated at 37° C. in 5% CO2 overnight. The cells were washed twice in 0.5 ml of optiMEM. ZElan094, 204N or 204 (SEQ ID NOS: 2, 23, 24) (Solution 4, Example 9) were each added to triplicate wells (250 μl/well) of the washed cells and incubated for 4 h at 37° C. After 4 h, 250 μl of optiMEM containing 2× fetal calf serum was added and the cells were incubated for an additional 20 h at 37° C. At 24 h post-transfection, the cells were lysed with Boehringer Mannheim Lysis Buffer. The lysate was centrifuged for 2 min at 14,000 rpm in an Eppendorf Centrifiguge and the supernatant was collected.

[5] = tested on: Caco-2 monolayers; assay: Transport of reporter molecule 3H-fMLP across Caco-2 monolayers; format: cell-based, human; conditions: for % inhibition 3H-fMLP transport: flux measured over 2 h
Protocol: The effect of the MTLPs ZElan094, ZElan178 and ZElan187 (SEQ ID NOS: 2, 7 and 16) and of the targeting peptide ZElan022 (U.S. patent application Ser. Nos. 09/079,819, 09/079,723 AND 09/079,678, AND PCT A[…]/US98/10088, PUBLISHED AS WO 98/51325) on the transport of the dipeptide ^14C-gly-sar and of the reporter molecule ^3H-fMLP across Caco-2 monolayers was determined. The Caco-2 monolayers were grown on Transwell-Snapwells. Cell viability was determined by measuring TEER of the Caco-2 monolayers during each experiment. No significant drop in TEER was measured. Cell permeability was determined by measuring mannitol flux across the Caco-2 monolayers during each experiment. No increase in mannitol flux was measured in the presence of the MTLP ZElan094.
The flux of the dipeptide ^14C-gly-sar and of the reporter molecule ^3H-fMLP across the Caco-2 monolayers in the absence and in the presence of the MTLPs ZElan094, ZElan178 and ZElan187 (SEQ ID NOS: 2, 7 and 16) and of the targeting peptide ZElan022 (U.S. patent application Ser. Nos. 09/079,819, 09/079,723 AND 09/079,678), AND PCT A[…]/US98/10088, PUBLISHED AS WO 98/51325 was measured over 2 h, and reduction in the permeability coefficient was determined in the presence of cold substrates.
Caco-2 monolayers were grown and tested for viability as in Example 11. Transport of ^3H-fMLP across Caco-2 monolyers was measured in the presence from 0 to 200 μg/ml of the MTLP ZElan094.

[6] = Solubility of ZElan094 (physical characteristics); format: physicochemical; conditions: water
[7] = tested on: Caco-2 monolayers; assay: Transport of dipeptide 14C-gly-sar across Caco-2 monolayers; format: cell-based, human; parameters: key to % inhibition 14C-gly-sar transport: NS: no significant difference between experimental (+MTLP) and control cells (−MTLP) in the transport of radiolabeled drug; conditions: flux measured over 2 h
Protocol: The effect of the MTLPs ZElan094, ZElan178 and ZElan187 (SEQ ID NOS: 2, 7 and 16) and of the targeting peptide ZElan022 (U.S. patent application Ser. Nos. 09/079,819, 09/079,723 AND 09/079,678, AND PCT APPLICATION PCT/US98/10088, PUBLISHED AS WO 98/51325) on the transport of the dipeptide ^14C-gly-sar and of the reporter molecule ^3H-fMLP across Caco-2 monolayers was determined. The Caco-2 monolayers were grown on Transwell-Snapwells. Cell viability was determined by measuring TEER of the Caco-2 monolayers during each experiment. No significant drop in TEER was measured. Cell permeability was determined by measuring mannitol flux across the Caco-2 monolayers during each experiment. No increase in mannitol flux was measured in the presence of the MTLP ZElan094.
The flux of the dipeptide ^14C-gly-sar and of the reporter molecule ^3H-fMLP across the Caco-2 monolayers in the absence and in the presence of the MTLPs ZElan094, ZElan178 and ZElan187 (SEQ ID NOS: 2, 7 and 16) and of the targeting peptide ZElan022 (U.S. patent application Ser. Nos. 09/079,819, 09/079,723 AND 09/079,678), AND PCT APPLICATION PCT/US98/10088, PUBLISHED AS WO 98/51325 was measured over 2 h, and reduction in the permeability coefficient was determined in the presence of cold substrates.

CC[C@@H](C)[C@@H](NC(=O)[C@@H](Cc1ccccc1)NC(=O)[C@@H](Cc1ccccc1)NC(=O)[C@H](CCCCN)NC(=O)[C@@H]1CCCN1C(=O)[C@H](C)NC(=O)[C@H](C)NC(=O)[C@H](CC(C)C)NC(=O)[C@H](CC(C)C)NC(=O)[C@@H](NC(=O)[C@@H]1CCCN1C(=O)[C@H](CC(C)C)NC(=O)[C@H](CC(C)C)NC(=O)[C@@H](NC(=O)[C@H](C)NC(=O)[C@H](C)NC(=O)[C@H](C)NC(=O)[C@H](CCCCN)NC(=O)[C@@H](N)CCCCN)C(C)C)C(C)C)C(=O)N[C@H](CCCNC(=N)N)C(N)=O [3H-Kappa peptide-Elan094]
fold increase in absolute 3H bioavailability versus kappa peptide without ligand [1]: ~6 fold
3H AUClast ([1]; Elan207 = original group): 260642.53±35010.58 dpm/ml·h
3H Amax (maximum radioactivity) ([1]; Elan207 = original group): 158512.67±18907.79 dpm/ml
fold increase in absolute 3H bioavailability versus kappa peptide without ligand ([1]; listed as Elan094 MTLP): approximately 5.8 fold
bioavailability ([1]; rat, plasma, potency corrected, Elan207 = original group, read-out: Absolute 3H bioavailability): 46.5 ± 6.24%
permeability compared to the kappa peptide control [2]: No significant increase
Catheter, % of administered dose [3]: 0.20 ± 0.10%
GI Tissue, % of administered dose [3]: 11.61 ± 11.27%
GI Washing, % of administered dose [3]: 9.70 ± 5.24%
GI contents, % of administered dose [3]: 23.57 ± 21.57%
Liver, % of administered dose [3]: 0.37 ± 0.06%
Total GI (% recovery from GI tissue, GI contents & GI wash) [3]: 44.89 ± 19.94%
Kidney, % of administered dose ([3]; t=6 h): 0.12 ± 0.07%
Plasma, % of administered dose ([3]; t=6 h): 0.42±0.08%
Total Recovery, % of administered dose ([3]; t=6 h): 46.00 ± 19.91%

H-K(ε-dansyl)AAVLLPVLLAAKKKRKA-NH2 ({K(dansyl)}-AAVLLPVLLAAKKKRKA-NH2) [ZElan204N]
DNA delivery into and expression within Caco-2 cells [4]: most effective

CC(C)C[C@H](NC(=O)[C@H](CC(C)C)NC(=O)[C@@H](NC(=O)[C@@H]1CCCN1C(=O)[C@H](CC(C)C)NC(=O)[C@H](CC(C)C)NC(=O)[C@@H](NC(=O)[C@H](C)NC(=O)[C@H](C)NC(=O)[C@H](C)NC(=O)[C@H](CCCCN)NC(=O)[C@H](CCCCN)NC(=O)[C@@H](N)CCCCNS(=O)(=O)c1cccc2c(N(C)C)cccc12)C(C)C)C(C)C)C(=O)N[C@@H](C)C(=O)N[C@@H](C)C(=O)N1CCC[C@H]1C(N)=O [ZElan094]
% inhibition 3H-fMLP transport ([5]; listed as 094): 77.2%
% inhibition 3H-fMLP transport ([5]; listed as ZElan 094): inhibited transport
inhibition of 3H-fMLP transport ([5]; range 0 to 200 μg/ml): inhibited
solubility [6]: 1000 µg/mL (≈ 545 µM)
% inhibition 14C-gly-sar transport [7]: NS
inhibition of 14C-gly-sar transport [7]: did not inhibit transport
